The subject of this experiment is rabbit blood clots. The experiment can be described thus: In vitro sonothrombolysis of rabbit blood clots in a Mylar flow chamber infused with serum. Conditions: CPDL 0.001% w/V added to the MB suspension, complete absence of tPA. The method, then: To assess the combined effect of ultrasound in combination with tPA, a tissue permeabilizer, and microbubbles (MBs) on the efficacy of sonothrombolysis, the following experiment was conducted. Sonothrombolysis was performed on rabbit blood clots situated in a Mylar flow chamber (37.0° C.) infused with serum. In addition, tPA was introduced into the flow chamber at several initial concentrations ranging from 0.0 mg/mL to 0.2 mg/mL. At each tPA concentration, the ultrasound delivery parameters were adjusted to maximize the efficacy of sonothrombolysis of the clots. The efficacy of sonothrombolysis was assessed by determining the % clot mass loss per minute within the flow chamber. The ultrasound delivery parameters that were adjusted in this experiment included pulsed ultrasound intensity (0.1-2.0 W/cm2), ultrasound frequency (0.7-4 MHz), and duty factor (0.05-100%).
Once the ultrasound delivery parameters were established for each tPA concentration, uniformly-sized MBs having diameters ranging from about […] were then added to the flow chamber; the concentration and elasticity of the MBs were adjusted while reducing tPA in order to maintain the initial % clot mass loss per minute. […]

The results in this text go back to patent US20130331738A1, “COMPOSITIONS AND METHODS FOR POTENTIATING SONOTHROMBOLYSIS” (Board of Trustees University of Arkansas, priority 2012, published 2013).

Take `O=C1CCCCCCCCCCCCCCO1` [CPDL, cyclopentadecanolide]: the “increase of efficacy of sonothrombolysis (% clot mass loss per minute)” value is listed as “six-fold”.
